From ChEMBL document CHEMBL3875164, “Pyrazole-based potent inhibitors of GGT1: Synthesis, biological evaluation, and molecular docking studies” (Eur J Med Chem, 2016) come the findings set out here.

Usually IC50 stands for the concentration that gives 50% inhibition.

Assay [1] can be described thus: Cytotoxicity against human MDA-MB-231 cells assessed as cell growth inhibition after 48 hrs by MTT assay method. The following applies: MDA-MB-231, 48 h. It is filed as functional, cell-based. On the technique in general: Formazan colour is commonly taken as a measure of viable cells.
Assay [2] can be described thus: Inhibition of recombinant FT (unknown origin) using FPP as substrate preincubated for 5 mins followed by protein addition measured over 20 mins by fluorescence assay. Also noted: species or system Homo sapiens.

Structures are written as SMILES. Some results are limits rather than exact numbers.

Turning to `CSCCc1c(-c2cccnc2)nn(-c2ccc(Cl)c(Cl)c2)c1OCCCC(=O)N[C@@H](Cc1ccccc1)C(N)=O`, the IC50 in assay [1] was found to be 23 µM.
For `COC(=O)[C@H](CCSC)NC(=O)c1ccc(NC[C@@H](N)CS)cc1-c1ccccc1`, the IC50 in assay [2] amounted to 1.1 µM.
With `CSCCc1c(-c2cccnc2)nn(-c2ccc(Cl)c(Cl)c2)c1OCCCNC(=O)[C@H](Cc1ccccc1)NS(C)(=O)=O`, the IC50 in assay [2] is more than 100 µM; in assay [1], more than 50 µM.
For the compound `CSCCc1c(-c2cccnc2)nn(-c2ccc(Cl)c(Cl)c2)c1OCCCNC(=O)[C@H](Cc1ccc(F)cc1)NS(C)(=O)=O`, the IC50 in assay [2] was more than 100 µM; in assay [1], more than 50 µM.
The matching figures for `COc1ccc(C[C@H](NS(C)(=O)=O)C(=O)NCCCOc2c(CCSC)c(-c3cccnc3)nn2-c2ccc(Cl)c(Cl)c2)cc1`: more than 100 µM and more than 50 µM.
The matching figures for `CSCCc1c(-c2cccnc2)nn(-c2ccc(Cl)c(Cl)c2)c1OCCCNC(=O)[C@H](Cc1cccnc1)NC(C)=O`: more than 100 µM and 52.3 µM.
For `CSCCc1c(-c2cccnc2)nn(-c2ccc(Cl)c(Cl)c2)c1OCCCNC(=O)[C@H](Cc1ccncc1)NC(C)=O`, the IC50 is more than 100 µM in assay [2] and 34.9 µM in assay [1].
Regarding `CSCCc1c(-c2cccnc2)nn(-c2ccc(Cl)c(Cl)c2)c1OCCCNC(=O)[C@H](Cc1cccnc1)NS(C)(=O)=O`, the results for the IC50 in assay [2] and in assay [1] were more than 100 µM and more than 50 µM, respectively.
For the compound `COc1ccc(C[C@H](NC(=O)OC(C)(C)C)C(=O)NCCCOc2c(CCSC)c(-c3cccnc3)nn2-c2ccc(Cl)c(Cl)c2)cc1`, the figures for the IC50 in assay [2] and in assay [1] were more than 100 µM and more than 50 µM, respectively.
The matching figures for `CSCCc1c(-c2cccnc2)nn(-c2ccc(Cl)c(Cl)c2)c1OCCCNC(=O)[C@H](Cc1ccccc1)NC(C)=O`: more than 100 µM and 15.4 µM.
Take `CSCCc1c(-c2cccnc2)nn(-c2ccc(Cl)c(Cl)c2)c1OCCCNC(=O)[C@H](Cc1ccncc1)NS(C)(=O)=O`: the values for the IC50 in assay [2] and in assay [1] were more than 100 µM and 26.5 µM, respectively.
The matching figures for `CSCCc1c(-c2cccnc2)nn(-c2ccc(Cl)c(Cl)c2)c1OCCCNC(=O)[C@H](Cc1ccc(F)cc1)NC(C)=O`: more than 100 µM and 13.2 µM.
As for `COc1ccc(C[C@H](NC(=O)CCCOc2c(CCSC)c(-c3cccnc3)nn2-c2ccc(Cl)c(Cl)c2)C(N)=O)cc1`, the figures for the IC50 in assay [2] and in assay [1] were more than 100 µM and 33.2 µM, respectively.
`CSCCc1c(-c2cccnc2)nn(-c2ccc(Cl)c(Cl)c2)c1OCCCC(=O)N[C@@H](Cc1ccc(F)cc1)C(N)=O`: the IC50 in assay [2] was more than 100 µM; in assay [1], 7.6 µM.
Consider `CSCCc1c(-c2cccnc2)nn(-c2ccc(Cl)c(Cl)c2)c1OCCCC(=O)N[C@@H](Cc1cccnc1)C(N)=O`, for which the IC50 was more than 100 µM in assay [2] and 29.4 µM in assay [1].
Consider `COc1ccc(C[C@H](NC(C)=O)C(=O)NCCCOc2c(CCSC)c(-c3cccnc3)nn2-c2ccc(Cl)c(Cl)c2)cc1`, for which the values for the IC50 in assay [2] and in assay [1] were more than 100 µM and 14.8 µM, respectively.
As for `CSCCc1c(-c2cccnc2)nn(-c2ccc(Cl)c(Cl)c2)c1OCCCC(=O)N[C@@H](Cc1ccncc1)C(N)=O`, the figures for the IC50 in assay [2] and in assay [1] were more than 100 µM and more than 50 µM, respectively.
